Measured values as given in a melting point compilation (Tetko et al.; mined from patent text by program, amines drawn as free bases though some values may be those of a salt).

Compared with `O=C(C=CC(=O)OC(Cl)C(Cl)(Cl)Cl)OC(Cl)C(Cl)(Cl)Cl` (stereo not given), `COC(=O)c1cccc(Cl)c1NC(C)=O` is lower in melting point: 144 °C for the first, 135 to 136 °C for the second.

First: Nc1nc(-c2ccc(CCN3CCN(c4cccc5cc(Cl)ccc45)CC3)cc2)cs1
Second: Cc1oc(-c2ccccc2)nc1CCOc1ccc(C[C@@H](C(=O)O)N2CCN(c3ccccc3)CC2)cc1
The melting point of the first is lower: 210 to 215 °C for the first, 218 to 220 °C for the second.

First: CN1C(=O)C2C3CCC(C2C1=O)N1COc2ccccc2N=C31 (stereo not given)
Second: O=C1CCC2CC(c3ccccc3)c3cccc1c32 (stereo not given)
The melting point of the first is higher: 222 to 224 °C for the first, 99 °C for the second.

First: CCOC(=O)C(c1ccc(Nc2nc(-c3cccc(NC(=O)c4cc5c(s4)CCCCC5)c3C)cn(C)c2=O)cc1)N1CCN(CC)CC1 (stereo not given)
Second: CCOC(=O)c1ccc(-c2c(Cl)c(CCl)nc3sc4c(c23)CCN(C(=O)OCc2ccccc2)C4)cc1
The melting point of the first is higher: 168 to 170 °C for the first, 123 to 124 °C for the second.

First: CSc1ccc(-c2n[nH]c(C(F)(F)F)c2-c2ccc(F)cc2)cc1
Second: COc1ccc(-c2nc(Sc3ccc(C(C)(C)C)cc3)[nH]c2-c2ccc(OC)cc2)cc1
The melting point of the first is higher: 189 to 190 °C for the first, 172 to 174 °C for the second.

First: NS(=O)(=O)c1cc2cc(-c3nc(C(F)(F)F)c[nH]3)ccc2s1
Second: CCNC(=O)n1nc(Oc2ccc(N)c(C(F)(F)F)c2)cc1C
The melting point of the first is higher: 285 to 286 °C for the first, 102 to 104 °C for the second.

First: O=[N+]([O-])c1ccc(Cn2ccnn2)cc1
Second: CC(=O)Nc1cc([N+](=O)[O-])ccc1OCCCCl
The melting point of the first is lower: 112 to 113 °C for the first, 130 °C for the second.

First: N#CCCn1cccc1-c1ccc2cnc(Nc3ccc(N4CCOCC4)cc3)nn12
Second: COC(=O)Cc1ccc(C(=O)CN2CCN(c3ccncc3)CC2)cc1
The melting point of the first is lower: 85 to 89 °C for the first, 127 to 129 °C for the second.

First: CCOc1cccc(CC(=O)O)c1OCCn1cc(C(=O)NCc2ccc(Cl)cc2Cl)c(OC(C)C)n1
Second: COC(=O)CN(C)C(=O)c1c2ccc(Cl)ccc-2[nH]c1=O
The melting point of the first is lower: 90 to 91 °C for the first, 170 to 172 °C for the second.

First: CN(C)CCNC(=O)c1ccc2c(c1)CN(C(=O)CCCCCN1CCN(c3cccc(C(F)(F)F)c3)CC1)C2
Second: O=C(CCCCCCN(Cc1ccccc1)C(=O)c1cn2c3c(cccc13)CCC2)NO
The melting point of the first is higher: 120 °C for the first, 71 to 73 °C for the second.

First: C=C(C)C(=O)OCc1c(Br)c(Br)c(Br)c(COC(=O)C(=C)C)c1Br
Second: NC(=O)N(O)CC(=O)N(Cc1cccs1)c1ccc(Br)cc1
The melting point of the first is higher: 97 to 99 °C for the first, 76 to 79.5 °C for the second.

First: O=C(Nc1ccccc1)O[C@@H]1CN=C(c2ccc(NC(=O)C(F)(F)F)cc2)O[C@H]1c1ccccc1 (racemic)
Second: COc1cccc2c1OC(C(=O)Nc1ccncc1)C2CC(=O)OCc1ccccc1 (stereo not given)
The melting point of the first is higher: 210 °C for the first, 165 to 166 °C for the second.

First: O=C(c1ccc(F)cc1)C1CCN(CCO)CC1
Second: COC(=O)C1CN(C)CCC1c1ccc(F)cc1 (stereo not given)
The melting point of the first is lower: 45 to 47 °C for the first, 88 to 89 °C for the second.

First: COc1cc2c(cc1C(F)(F)F)N(C(=O)Nc1cccc(-c3cnccc3C)c1)CC2
Second: CNc1nc(-c2cccc(NC(=O)c3ccccc3)c2)c2cc(O)c(OC)cc2n1
The melting point of the first is higher: 178 to 180 °C for the first, 145 to 147 °C for the second.

First: CCOC(=O)c1cn(-c2ccccn2)c2oc(CN3CCOCC3)cc2c1=O
Second: COc1ccc(N2C(=O)c3ccc(Cl)cc3C2CC(=O)N2CCN(C)CC2)cc1 (stereo not given)
The melting point of the first is higher: 192 to 195 °C for the first, 169 to 171 °C for the second.

First: Cc1ccn(-c2cncc(F)c2)n1
Second: O=Cc1cccc(Oc2cccc(F)c2)n1
The melting point of the first is higher: 70 to 72 °C for the first, 42 to 43 °C for the second.

Compared with `Oc1ccc(O)c2nccnc12`, `Cn1c2sc(C(=O)O)cc2c2cccc(Cl)c21` is lower in melting point: 234 to 236 °C for the first, 233 to 234 °C for the second.

Compared with `CC(C)n1nc(-c2c(-c3ccccc3)nn3ccc(OCCc4ccccc4)cc23)ccc1=O`, `Cc1noc(C)c1Cn1cc(-n2c(=O)n(C)n(Cc3ccccc3)c2=O)cn1` is lower in melting point: 154 to 156 °C for the first, 124 to 126 °C for the second.

First: CCCCCCCCCCCC(=O)OC1CC(c2ccccc2)NC(c2ccccc2)C1C (stereo not given)
Second: CC1(C)CCC(C)(C)c2cc(C(=O)c3ccccc3C=O)ccc21
The melting point of the first is lower: 56 to 59 °C for the first, 145 °C for the second.

First: COc1cc2c(Nc3ccc4cn[nH]c4c3)c(C#N)cnc2c(OC)c1OC
Second: Cn1cc(-c2cc3cccnc3[nH]2)c2ccc(C(=O)NCCO)cc21
The melting point of the first is lower: 243 to 245 °C for the first, 264 to 267 °C for the second.

First: COC(=O)c1cc(S(C)(=O)=O)c(Br)cc1C
Second: COC(=O)c1sc(-c2ccc(C#N)cc2)nc1C
The melting point of the first is lower: 150 °C for the first, 186 to 187 °C for the second.

First: CCOC(=O)COc1ccc(NC(=O)OC(C)(C)C)cc1C(F)(F)F
Second: CCOC(C)=NOc1nc(C(F)(F)F)cc(=O)n1-c1cc(Oc2ccccc2[N+](=O)[O-])c(Cl)cc1F
The melting point of the first is lower: 104 to 105 °C for the first, 152 to 155 °C for the second.

Compared with `Cc1cc(C2=NOC(c3cc(Cl)cc(Cl)c3)(C(F)(F)F)C2O)ccc1C(=O)O` (stereo not given), `Cc1ccc(S(=O)(=O)N(Cc2ccc(C#N)cc2F)C2CCC2)cc1` is lower in melting point: 215 to 217 °C for the first, 146 to 147 °C for the second.

First: O=c1[nH]c(CCl)nc2cc3c(cc12)CCC3
Second: O=c1c2ccccc2cc2sccn12
The melting point of the first is higher: 270 to 272 °C for the first, 135 to 136 °C for the second.

Compared with `CC(C)(C)OC(=O)NCC[C@H]1CC[C@H](COS(C)(=O)=O)CC1`, `CC(=O)OCC1OC(OC(C)=O)C(N=[N+]=[N-])C([N+](=O)[O-])C1OC(C)=O` (stereo not given) is higher in melting point: 83 to 84 °C for the first, 118 to 120 °C for the second.
